By half-life is commonly meant how long it takes for the measured level to halve. The low end stands for rapid decline, the high end for slow decline.

Series [1] in a line: chemical stability of drug substance in tablets as a function of residual moisture (LOD). Type of series: physicochemical. Conditions: LOD kept at about 2.1%-4.5% (200 mg tablets) or about 1.7%-3.5% (400 mg, 65% drug-loaded tablets). As for the experimental part: That is, certain degradation products of 5-methyl-2-(2′-chloro-6′-fluoroanilino)phenylacetic acid are formed at a greater rate in dryer tablets, which is contrary to the typical behavior of drug substances. In general, moisture, in the form of water, is detrimental to drug stability, and packaging for pharmaceutical formulations frequently contains some form of desiccant material to minimize moisture levels.
Tablets with about 200 mg of active agent preferably have an LOD of 3.5% with a desirable range between about 2.1% and about 4.5%. 65% drug-loaded tablets with about 400 mg of active agent preferably have an LOD of about 2.5%, with a desirable range between about 1.7% and about 3.5%.
The compositions and methods of the invention provide solid pharmaceutical compositions for oral administration comprising 5-methyl-2-(2′-chloro-6′-fluoroanilino)phenylacetic acid with minimal levels of total degradation products Oral dosage levels for 5-methyl-2-(2′-chloro-6′-fluoroanilino)phenylacetic acid are of the order of between about 200 and about 1200 mg per patient per day. In a preferred embodiment, the effective amount is between about 200 and about 800 mg. In a more preferred embodiment, the effective amount is between about 200 and about 600 mg. In an even more preferred embodiment, the effective amount is between about 200 and about 400 mg. […]

Series [2] can be described thus: blood plasma half life after oral administration. Type of series: in vivo. As to conditions: oral administration of immediate release composition. The source says:
The pharmaceutical compositions useful in the practice of the invention are for oral administration and are “immediate release” dosage forms. That is, the pharmaceutical compositions useful in the practice of the invention have neither the pharmacokinetic nor physical characteristics of extended release pharmaceutical dosage forms. Thus, a pharmaceutical composition useful in the practice of the invention, if in solid form, will disintegrate or dissolve rapidly, preferably within one hour of administration, and administration of a pharmaceutical composition useful in the practice of the invention will result in a rapid rise in the blood plasma concentration of 5-methyl-2-(2′-chloro-6′-fluoroanilino)phenylacetic acid. Preferably, the blood plasma concentration of 5-methyl-2-(2′-chloro-6′-fluoroanilino)phenylacetic acid will reach a maximum within two to six hours after oral administration and will then fall rapidly due to the relatively short (3 to 6 hour) half life of 5-methyl-2-(2′-chloro-6′-fluoroanilino)phenylacetic acid.

`Cc1ccc(Nc2c(F)cccc2Cl)c(CC(=O)O)c1` [5-methyl-2-(2′-chloro-6′-fluoroanilino)phenylacetic acid]: the “chemical stability of the active agent in tablets” value in series [1] is “more chemically stable”. Further, in series [2], the half-life fell in the range of 3 to 6 h.

Values taken from patent US20050123604A1, “Pharmaceutical compositions” (priority 2002, published 2005).
